Laboratory results published in patent publication US20100178293A1 (priority 2007, published 2010).

Experiments:
[1] = tested on: mouse model for Alzheimer's disease; conditions: literature, Lim et al. 2000; cited from earlier work
RML prion = type: in vivo, mice; conditions: Example 1; RML prion i.p.; Campath 100 μg i.v.
Tg2576 Tg+ mice = assay: Tg2576 mouse model of Alzheimer's disease (Example 2); type: in vivo; conditions: 100 μg i.v. weekly for 6 months
Experimental: Ten-month-old male and female Tg2576 Tg+ and Tg− are used (n=10 animals/group). Tg+ mice are treated with Campath 100 μg i.v. weekly for 6 months or placebo (saline), respectively before being sacrificed. TG− mice served as controls Animals are perfused before brain dissection with 0.9% normal saline followed by HEPES buffer, pH 7.2, containing protease inhibitors. […] Tg+ mice fed chow containing ibuprofen for 6 months serve as positive treatment control.

CC(C)Cc1ccc(C(C)C(=O)O)cc1 (stereo not drawn) [Ibuprofen]
plaque pathology and inflammation in a mouse model for Alzheimer's disease [1]: suppresses plaque pathology and inflammation

alemtuzumab [Campath]
inhibition of the spread of prions in an animal model (RML prion): can inhibit the spread of prions
activity in a mouse model of Alzheimer's disease (Tg2576 Tg+ mice): active
